Measured values reported in ChEMBL document CHEMBL1146922, “A novel ketone derivative of artemisinin biotransformed by Streptomyces griseus ATCC 13273” (Bioorg Med Chem Lett, 2006).
Values after ≈ are worked out from the molar mass of the structure shown.

System: Plasmodium falciparum
Assay: Antimicrobial activity against Plasmodium falciparum FCC1/HN; call rule not given here
Format: functional, organism-based
[1] = Plasmodium falciparum, FCC1/HN, read-out: IC50

IC50 | Structure (SMILES) | IC50 [1] [µg/mL]
 | C[C@@H]1[C@@H](O)C[C@H]2[C@@H](C)C(=O)O[C@@H]3O[C@]4(C)CC[C@@H]1C32OO4 | 0.0293 (≈ 0.0982 µM)
 | C[C@@H]1[C@H](O)C[C@H]2[C@@H](C)C(=O)O[C@@H]3O[C@]4(C)CC[C@@H]1C32OO4 | 0.0346 (≈ 0.116 µM)
 | C[C@@H]1C(=O)C[C@H]2[C@@H](C)C(=O)O[C@@H]3O[C@]4(C)CC[C@@H]1C32OO4 | 0.0257 (≈ 0.0867 µM)
Not Active | C[C@@H]1CC[C@H]2[C@@H](C)C(=O)O[C@@H]3O[C@@]4(C)OC32[C@H]1C[C@H]4O | 
 | C[C@@H]1CC[C@H]2[C@@H](C)C(=O)O[C@@H]3O[C@@]4(C)CC[C@@H]1[C@]32OO4 [ARTEMISININ] | 0.0031 (≈ 0.011 µM)
